Literature values in patent EP4603079A1, “COMPOSITION COMPRISING A PEPTIDE HAVING AN ISOELECTRIC POINT OF LESS THAN 6.5 AND A CO-POLYAMINO ACID BEARING CARBOXYLATE CHARGES AND HYDROPHOBIC RADICALS” (Adocia, priority 2024, dated 2025).
pEC50: −log10 of the molar value.

Target: T1, amylin receptor 3 (AMYR3) (Homo sapiens, UniProt O60896+P30988)
T1 sequence (P30988 25-474): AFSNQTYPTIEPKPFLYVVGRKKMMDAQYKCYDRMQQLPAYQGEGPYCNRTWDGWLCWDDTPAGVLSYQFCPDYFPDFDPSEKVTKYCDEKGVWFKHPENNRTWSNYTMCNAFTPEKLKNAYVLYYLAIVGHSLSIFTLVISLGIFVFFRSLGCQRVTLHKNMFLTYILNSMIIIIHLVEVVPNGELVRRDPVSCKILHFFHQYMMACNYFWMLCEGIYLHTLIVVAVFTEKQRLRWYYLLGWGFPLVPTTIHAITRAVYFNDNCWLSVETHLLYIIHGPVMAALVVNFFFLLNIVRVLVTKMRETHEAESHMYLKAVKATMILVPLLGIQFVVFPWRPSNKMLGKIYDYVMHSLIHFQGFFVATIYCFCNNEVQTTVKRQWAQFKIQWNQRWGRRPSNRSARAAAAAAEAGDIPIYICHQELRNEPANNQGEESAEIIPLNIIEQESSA
T1 sequence (O60896 24-148): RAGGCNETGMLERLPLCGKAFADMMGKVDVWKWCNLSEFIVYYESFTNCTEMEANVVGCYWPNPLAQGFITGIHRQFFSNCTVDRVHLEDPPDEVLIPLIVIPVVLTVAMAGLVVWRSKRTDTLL
Conditions: procedure of WO2022129526, Assay 2; Tables 4b and 4c there; read-out: EC50value

N-alpha-[(S)-4-Carboxy-4-(19-carboxynonadecanoylamino)butyryl]-[Glu14,Arg17,Pro37]-pramlintide [cagrilintide]
pEC50: ~10.96
